The values that follow come from patent publication US20260109664A1, “COMPOUNDS FOR USE AS MEDICAMENTS” (priority 2022, published 2026).

The test system of experiment [1] is C. difficile 630Δerm. Description: Toxicity growth curves (OD590 nm) of C. difficile monoculture in minimal media. It counts as cell-based, Clostridioides difficile. As to conditions: 8-hour growth curve; for effect on the growth of C. difficile (growth curve, OD590 nm): compound 6.6 mM in MM with 1% DMSO, FIGS. 1a to 5b. Here is the method: (§1) Compounds EX1 to EX5 were separately tested to determine their toxicity to C. difficile and E. coli.
(§2) Each compound was dissolved to 6.6 mM in minimal media (MM) with 1% DMSO based on the MM described by Cartman et al. in Appln. Environ. Microbiol, 2010, 76, 1103 and the concentration was matched in a 1:1 ratio of the compound to the substrate p-HPA.
(§3) To determine growth rates of C. difficile and E. coli in the presence of compounds EX1 to EX5, three colonies of C. difficile or three colonies of E. coli were used to inoculate a primary culture of 10 mL MM in 50 cm^3 vented tissue culture flasks (Thermo Scientific). Following overnight incubation on a shaking platform at 50 rpm, the primary culture was back diluted in MM to OD590 nm 0.5 using a Fisherbrand™ Digital Colorimeter model 4.5 (Fisher Scientific). 1 ml of the OD590 nm 0.5 culture was inoculated into 10 ml of MM in 50 cm^3 vented tissue culture flasks with and without 4-hydroxyphenylacetic acid and the relevant compound (EX1 to EX5).
(§4) OD590 nm readings were determined every hour for eight hours using a Fisherbrand™ Digital Colorimeter model 4.5 (Fisher Scientific).
(§5) Growth curves denoting growth over an 8-hour time period for C. difficile and E. coli in MM with the presence of 4-hydroxyphenylacetic acid and inhibitors EX1 to EX5, each at 6.6 mM. Absorbance was measured at OD590 nm. *p<0.05, **p<0.01, samples represent a minimum of three biological replicates graphed in GraphPad prism (v9). Raw absorbance was normalised using a blank MM control.

Experiment [2] deals with E. coli. As to the kind of experiment: Toxicity growth curves (OD590 nm) of E. coli monoculture in minimal media. It counts as cell-based, Escherichia coli. As to conditions: compound 6.6 mM in MM with 1% DMSO, 8-hour growth curve, FIGS. 1a to 5b. The method, then: as §1, §2, §3, §4, §5
In experiment [3] the test system is production of 4-methylphenol by C. difficile. As to the kind of experiment: HPLC of C. difficile monocultures: 4-methylphenol (p-cresol) production. It counts as cell-based, Clostridioides difficile. As to conditions: 630Δerm, 8 hours, 1.5 mg/ml p-HPA with matched 6.6 mM compound, normalised to OD590 nm, FIG. 14. Here is the method:
C. difficile monocultures were established in the presence of the following compounds EX1, EX3, EX5 and EX8.
Samples of 630Δerm were collected following growth in minimal media with 1% DMSO v/v for 8 hours with 1.5 mg/ml p-HPA with matched (6.6 mM) concentrations of compounds EX1, EX3, EX5 and EX8. At the time of sample collection, the OD590 nm of the culture was measured. Samples were immediately filter sterilised using 0.22 μm filters, then frozen at −80° C. prior to HPLC analysis.
The filter-sterilized samples were transferred to HPLC vials and analysed immediately by injecting onto the HPLC column. Separations were achieved by utilizing an Acclaim 120 (Thermofisher), C18, 5 μm (4.6×150 mm), with the mobile phase consisting of ammonium formate (10 mM, pH 2.7) and […] (v/v; 50:50) at a flow rate of 1400 μl/min. p-HPA and p-cresol were detected by the diode array detector (PDA; DAD 3000) set at 280 nm. Peak identity was confirmed by measuring the retention time of commercially available p-HPA and p-cresol, and determination of absorbance spectra was performed using the DAD. A calibration curve of each compound was generated by Chromeleon (Dionex software) using known amounts of the reference standards (0-5 mg/ml) dissolved in media and injected onto the column, and the amount of p-HPA and p-cresol in the samples was determined. Samples from three independent biological replicates were analysed compared to media controls and standard curves. The limit of detection for p-HPA and p-cresol are 0.001 and 0.0005 mg/ml, respectively. The p-cresol concentration was normalised to growth by using the OD590 nm measured at the time of sample collection.

Experiment [4] has the same test system. Description: HPLC of C. difficile / E. coli co-culture: 4-methylphenol production. It counts as cell-based, Clostridioides difficile. As to conditions: 630Δerm and E. coli co-culture, no normalisation to OD590 nm, FIG. 15. Here is the method: A C. difficile 630Δerm and E. coli co-culture was established (as per the methods previously described) in the presence of compound EX3.
Following co-culture, CFU assays were undertaken to determine relative survival of C. diff and E. coli. The remaining sample was filter sterilised (0.22 μm filters), then frozen at −80° C. prior to the HPLC analysis. HPLC analysis was carried out as described above (HPLC monocultures) with the exception of there being no normalisation of the 4-methylphenol concentration to OD590 nm.

In experiment [5] the test system is C. difficile 630Δerm. As to the kind of experiment: Co-culture of C. difficile and E. coli, CFU percentages: C. difficile. Type of experiment: cell-based, Clostridioides difficile. The settings on record: MM + 6.6 mM p-HPA + 6.6 mM inhibitor, 1% DMSO, 14 hours co-culture, FIGS. 7 to 13. The method, then: (§6) Compounds EX1 to EX7 were tested to determine their ability to reduce the growth of C. difficile relative to E. coli.
(§7) C. difficile 630Δerm and E. coli were grown overnight in MM. C. difficile was back diluted to an OD590 nm of 0.2. 18 μl of the back dilution was added to 1.8 ml of the test conditions: MM, MM+6.6 mM p-HPA, MM+6.6 mM inhibitor, and MM+6.6 mM p-HPA+6.6 mM inhibitor, in a 24 well plate. Each inhibitor was dissolved in DMSO such that the final concentration in the 24 well plate was 1% v/v. C. difficile was grown for 8 hours before E. coli underwent back dilution to an OD590 nm of 0.2 and 18 μl was inoculated into the C. difficile wells to give the co-culture. The co-culture was grown for 14 hours. The proportion of the co-cultures made up by C. difficile and E. coli were determined by colony-forming units per millilitre (CFU/ml) assays with co-cultures plated on to BHIS plates in duplicate with selective media for each species. C. difficile was selected for using cycloserine (250 mg/l) and cefoxitin (8 mg/l) whilst E. coli was selected for using vancomycin (4 mg/l). […] CFUs were counted on the following day. CFU data is presented using CFU percentages which were calculated by dividing the number of CFUs for each species by the total number of CFUs for both E. coli and C. difficile and multiplying by 100. […] Data was analysed by linear regression carried using Stata17.

The test system of experiment [6] is E. coli. As to the kind of experiment: Co-culture of C. difficile and E. coli, CFU percentages: E. coli. Type of experiment: cell-based, Escherichia coli. As to conditions: MM + 6.6 mM p-HPA + 6.6 mM inhibitor, 1% DMSO, 14 hours co-culture, FIGS. 7 to 13. Here is the method:
as §6, §7

For the compound `NC(=O)Cc1ccc(O)cc1` [EX1], the “effect on the growth of C. difficile (growth curve, OD590 nm)” value in the experiment on C. difficile 630Δerm [1] is recorded as “no effect on the growth”. Also, in the experiment on E. coli [2], the “effect on the growth of E. coli (growth curve, OD590 nm)” value (“effect on the growth of E. coli” below) is reported as “inhibited the growth”. For the same compound, the “production of 4-methylphenol by C. difficile (HPLC, monoculture)” value (shortened to “production … (HPLC, monoculture)”) in experiment [3] is recorded as “reduced”.

Regarding `OCCc1ccc(O)cc1` [EX2], in the experiment on C. difficile 630Δerm [1], the “effect on the growth of C. difficile (growth curve, OD590 nm)” value was “toxic”. Further, the “effect on the growth of E. coli” value in the experiment on E. coli [2] was “toxic”.

Regarding `N#CCc1ccc(O)cc1` [EX3], the “effect on the growth of C. difficile when both compound and p-HPA present” value in the experiment with C. difficile 630Δerm [1] (compound 6.6 mM + p-HPA 6.6 mM (1:1) in MM) is given as “inhibited the growth”. Also, the “effect on the growth of E. coli” value with E. coli [2] was “inhibited the growth”. Further, the “production … (HPLC, monoculture)” value in experiment [3] was “reduced”. Further, the “production of 4-methylphenol by C. difficile (HPLC, co-culture with E. coli)” value in experiment [4] is reported as “reduced”.

Take `O=C(O)CCc1ccc(O)cc1` [EX4]: the “effect on the growth of C. difficile (growth curve, OD590 nm)” value in the experiment on C. difficile 630Δerm [1] is “no effect on the growth”.

Consider `O=C(O)c1ccc(O)cc1` [EX5], for which the “effect on the growth of C. difficile (growth curve, OD590 nm)” value in the experiment with C. difficile 630Δerm [1] is given as “no effect on the growth”. In addition, in the experiment with E. coli [2], the “effect on the growth of E. coli” value is listed as “no effect on the growth”. In addition, the “production … (HPLC, monoculture)” value in experiment [3] is “reduced”.

In the case of `CC(C)(C(=O)O)c1ccc(O)cc1` [EX6], the “inhibition of the growth of C. difficile in co-culture with E. coli (CFU percentage)” value with C. difficile 630Δerm [5] is reported as “able to inhibit the growth”. The “impact on the growth of E. coli in co-culture with C. difficile” value in the experiment on E. coli [6] is reported as “little or no negative impact”.

Consider `O=C(O)Cc1ccc(O)cc1` [EX7], for which the “inhibition of the growth of C. difficile in co-culture with E. coli (CFU percentage)” value in the experiment on C. difficile 630Δerm [5] is “able to inhibit the growth”. In addition, in the experiment with E. coli [6], the “impact on the growth of E. coli in co-culture with C. difficile” value is on record as “little or no negative impact”.

As for `COC(=O)Cc1ccc(O)cc1` [EX8], the “production … (HPLC, monoculture)” value in experiment [3] is listed as “reduced”.
